Measured values from ChEMBL document CHEMBL1201862, “PubChem BioAssay data set” (2004).
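Compound exposure: 48 hours, 5 concentrations, 96-well plates. GI50 = concentration required for 50% inhibition of growth.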 The source made the active and inactive calls. No stated cut-off is given here; in the data, active = GI50 up to about 1.1 µM and inactive = higher.

Assays:
Experiment in all cases: NCI-60 cell line screen, 48 h
[1] = tested on: SN12C
[2] = tested on: KM12
[3] = tested on: SK-MEL-2
[4] = tested on: HCT-15
[5] = tested on: CCRF-CEM
[6] = tested on: MOLT-4
[7] = tested on: HOP-62
[8] = tested on: OVCAR-5
[9] = tested on: DU-145
[10] = tested on: RXF 393
[11] = tested on: 786-0
[12] = tested on: RPMI-8226
[13] = tested on: SF-295
[14] = tested on: HT-29
[15] = tested on: U-251
[16] = tested on: NCI/ADR-RES
[17] = tested on: BT-549
[18] = tested on: SF-539
[19] = tested on: SK-OV-3

SMILES | GI50 [1] | GI50 [2] | GI50 [3] | GI50 [4] [µM] | GI50 [5] | GI50 [6] | GI50 [7] | GI50 [8] | GI50 [9] | GI50 [10] | GI50 [11] | GI50 [12] | GI50 [13] | GI50 [14] | GI50 [15] | GI50 [16] | GI50 [17] | GI50 [18] | GI50 [19]
NC(=O)NC(CC(=O)O)C(=O)O (stereo not drawn) | > 100 µM (inactive) | > 100 µM (inactive) | > 100 µM (inactive) | > 100 | > 100 µM (inactive) | > 100 µM (inactive) | > 100 µM (inactive) | > 100 µM (inactive) | > 100 µM (inactive) | > 100 µM (inactive) | > 100 µM (inactive) | > 100 µM (inactive) | > 100 µM (inactive) | > 100 µM (inactive) | > 100 µM (inactive) | > 100 µM (inactive) | > 100 µM (inactive) |  | 
OCCCSCCO | > 100 µM (inactive) | > 100 µM (inactive) | > 100 µM (inactive) | > 100 | > 100 µM (inactive) | > 100 µM (inactive) | > 100 µM (inactive) | > 100 µM (inactive) | > 100 µM (inactive) |  | > 100 µM (inactive) | > 100 µM (inactive) | > 100 µM (inactive) | > 100 µM (inactive) | > 100 µM (inactive) | > 100 µM (inactive) | > 100 µM (inactive) | > 100 µM (inactive) | > 100 µM (inactive)
C=C1C[C@@H]2O[C@H]3[C@H]4[C@@H](C[C@@H](C)[C@@H](OC(C)=O)[C@H]42)[C@@H](C)CO[C@@]3(C)[C@H](OC(C)=O)C[C@H]1O | > 100 µM (inactive) | > 100 µM (inactive) | > 100 µM (inactive) | > 100 | 25.9 µM (inactive) | 53 µM (inactive) |  | > 100 µM (inactive) | > 100 µM (inactive) | 38.7 µM (inactive) | > 100 µM (inactive) |  | > 100 µM (inactive) | 63.2 µM (inactive) | > 100 µM (inactive) | > 100 µM (inactive) | 63.4 µM (inactive) | > 100 µM (inactive) | > 100 µM (inactive)
COc1ccc(SC(C)(SC)c2ccccn2)c(OC)n1 (stereo not drawn) | > 100 µM (inactive) | 79.1 µM (inactive) | 30.8 µM (inactive) | 54.7 |  | 3.22 µM (inactive) | > 100 µM (inactive) | > 100 µM (inactive) | > 100 µM (inactive) | > 100 µM (inactive) | 66.7 µM (inactive) | 23.3 µM (inactive) | 49.2 µM (inactive) | 42.7 µM (inactive) | > 100 µM (inactive) | 53.6 µM (inactive) | 64.9 µM (inactive) | > 100 µM (inactive) | 
COc1cccc(Cc2cc(=O)c3ccc(C)nc3[nH]2)c1 | > 100 µM (inactive) | > 100 µM (inactive) | > 100 µM (inactive) | > 100 | > 100 µM (inactive) | 41.3 µM (inactive) | > 100 µM (inactive) | > 100 µM (inactive) | > 100 µM (inactive) | > 100 µM (inactive) | > 100 µM (inactive) | 48.6 µM (inactive) | > 100 µM (inactive) | > 100 µM (inactive) | > 100 µM (inactive) | > 100 µM (inactive) | 94.8 µM (inactive) |  | > 100 µM (inactive)
CCOC(=O)C#Cc1cccc(C#CC(=O)OCC)c1 | 3.03 µM (inactive) | 6.65 µM (inactive) | 2.19 µM (inactive) | 3.31 | 1.22 µM (inactive) |  | 5.69 µM (inactive) | 1.14 µM (inactive) | 6.52 µM (inactive) | 5.31 µM (inactive) | 4.47 µM (inactive) | 4.71 µM (inactive) | 1.65 µM (inactive) | 4.81 µM (inactive) | 4.71 µM (inactive) | 6.05 µM (inactive) | 2.28 µM (inactive) | 5.14 µM (inactive) | 7.55 µM (inactive)
COC(c1ccsc1)C(C#N)(C#N)/N=C/c1ccsc1 (stereo not drawn) | 16.7 µM (inactive) | 16.7 µM (inactive) | 19 µM (inactive) | 13 | 5.96 µM (inactive) | 13.9 µM (inactive) | 17.4 µM (inactive) | 20.9 µM (inactive) | 15.2 µM (inactive) | 12.7 µM (inactive) | 17.3 µM (inactive) |  | 18.1 µM (inactive) | 12.5 µM (inactive) | 17.3 µM (inactive) | 17.7 µM (inactive) | 17 µM (inactive) | 15.7 µM (inactive) | 21.1 µM (inactive)
COC(=O)C1=C(O)C(C(=O)OC)[C@]2(O)[C@H](C(=O)OC)[C@H]1C[C@@H](c1ccc([N+](=O)[O-])cc1)[C@H]2C(=O)OC (stereo partly drawn) | 18.1 µM (inactive) | 28 µM (inactive) | 18.4 µM (inactive) | 12.7 | 18 µM (inactive) | 8.09 µM (inactive) | 34.6 µM (inactive) | 25.2 µM (inactive) | 34.7 µM (inactive) | 14.7 µM (inactive) | 14.9 µM (inactive) |  | 28.5 µM (inactive) | 22.6 µM (inactive) | 11.5 µM (inactive) | 16.4 µM (inactive) | 15.9 µM (inactive) | 30.5 µM (inactive) | 27.8 µM (inactive)
C=C1C(=O)OC2CCN3CC=C(COC(=O)C(C)(O)C4(CO4)C1C)C23 (stereo not drawn) | > 100 µM (inactive) | > 100 µM (inactive) | > 100 µM (inactive) | > 100 | > 100 µM (inactive) | > 100 µM (inactive) |  |  | > 100 µM (inactive) | > 100 µM (inactive) | > 100 µM (inactive) |  | > 100 µM (inactive) | > 100 µM (inactive) | > 100 µM (inactive) | > 100 µM (inactive) | > 100 µM (inactive) |  | > 100 µM (inactive)
O=C(NCCC1CNc2ccccc21)OCc1ccccc1 (stereo not drawn) |  | > 100 µM (inactive) | > 100 µM (inactive) | > 100 | 87.7 µM (inactive) | 71.4 µM (inactive) | > 100 µM (inactive) | > 100 µM (inactive) | > 100 µM (inactive) | > 100 µM (inactive) | > 100 µM (inactive) | > 100 µM (inactive) | > 100 µM (inactive) | > 100 µM (inactive) | > 100 µM (inactive) | > 100 µM (inactive) | > 100 µM (inactive) |  | > 100 µM (inactive)
Cn1c(=O)oc2cc(C(O)CN3CCN(Cc4ccccn4)CC3)c(Cl)cc21 (stereo not drawn) | > 100 µM (inactive) | > 100 µM (inactive) |  | > 100 | > 100 µM (inactive) | > 100 µM (inactive) | > 100 µM (inactive) | > 100 µM (inactive) | > 100 µM (inactive) | > 100 µM (inactive) | > 100 µM (inactive) |  | > 100 µM (inactive) | > 100 µM (inactive) | > 100 µM (inactive) | 0.461 µM (active) | > 100 µM (inactive) | > 100 µM (inactive) | > 100 µM (inactive)
COC1=Nc2ccccc2S(=O)(=O)C=C1 | 14.4 µM (inactive) | 14.8 µM (inactive) | 16.6 µM (inactive) | 3.42 | 0.342 µM (active) |  | 43.3 µM (inactive) | 16.9 µM (inactive) | 16.8 µM (inactive) | 2.69 µM (inactive) | 3.29 µM (inactive) |  | > 45.4 µM (inactive) | 9.89 µM (inactive) | 11.4 µM (inactive) | 13.1 µM (inactive) | 6.75 µM (inactive) | 16.7 µM (inactive) | 45.7 µM (inactive)
COc1ccccc1C(=O)NO | > 100 µM (inactive) | 39.5 µM (inactive) | > 100 µM (inactive) | > 100 | > 100 µM (inactive) | > 100 µM (inactive) | > 100 µM (inactive) | > 100 µM (inactive) | > 100 µM (inactive) | > 100 µM (inactive) | > 100 µM (inactive) | > 100 µM (inactive) | > 100 µM (inactive) | > 100 µM (inactive) | > 100 µM (inactive) | > 100 µM (inactive) | > 100 µM (inactive) |  | > 100 µM (inactive)
O=C(O)c1c(-c2ccccc2)c(=O)[nH]c2ccccc12 | > 100 µM (inactive) | > 100 µM (inactive) | > 100 µM (inactive) | > 100 | > 100 µM (inactive) | > 100 µM (inactive) | > 100 µM (inactive) | > 100 µM (inactive) | > 100 µM (inactive) | > 100 µM (inactive) | > 100 µM (inactive) | > 100 µM (inactive) | > 100 µM (inactive) | > 100 µM (inactive) | > 100 µM (inactive) | > 100 µM (inactive) | > 100 µM (inactive) |  | > 100 µM (inactive)
O=C(O)[C@H]1[C@@H](C2CCCCC2)O[C@@H](C2CCCCC2)O[C@H]1C(F)(F)F | 17.1 µM (inactive) | 22.2 µM (inactive) |  | 30.1 | 22.8 µM (inactive) | 21.6 µM (inactive) | 24 µM (inactive) | 20.2 µM (inactive) | 41.8 µM (inactive) | 22.9 µM (inactive) | 17.8 µM (inactive) | 23.9 µM (inactive) | 19.1 µM (inactive) | 22.6 µM (inactive) | 18.8 µM (inactive) | 40.6 µM (inactive) | 33.2 µM (inactive) | 35.7 µM (inactive) | 38.9 µM (inactive)
CC(=O)Oc1cc(S(=O)(=O)Nc2nc(N)n[nH]2)c(S)cc1Cl | > 100 µM (inactive) | > 100 µM (inactive) | > 100 µM (inactive) | > 100 | > 100 µM (inactive) | > 100 µM (inactive) | > 100 µM (inactive) | > 100 µM (inactive) | > 100 µM (inactive) |  | > 100 µM (inactive) | > 100 µM (inactive) | > 100 µM (inactive) | > 100 µM (inactive) | > 100 µM (inactive) | > 100 µM (inactive) | > 100 µM (inactive) | > 100 µM (inactive) | 
